Measurements from patent US20230146455A1, “TREATMENT OF INFLAMMATORY DISEASES WITH PEPTIDES AND PHARMACEUTICAL COMPOSITIONS” (Yuyu Pharma, Inc., priority 2020, published 2023).
Several values for one entry are separate records, joined by “and”; a condition that tells them apart may be missing. Equal values may be shown once. Where a SMILES comes first, the peptide text is derived from it. [ ]: non-standard residue; d: D form. Hyp = O=C(O)[C@@H]1C[C@@H](O)CN1

Key:
[1] = PBMC cell counts (total, live, viability; trypan blue, Countess) with and without LPS and test articles (Example 9); assay type: cell-based, human; settings: human, PBMCs, 24 hr
Procedure: (§1) Treatment Human PBMCs were pretreated with YY-101, YDE-011 and YDE-043 or reference compound; Xiidra® at various concentration (ranging from 1 nM to 100 uM) for 2 h before stimulation. An equal volume of 0.5% DMSO was used as a vehicle control. Then, the cells were treated with LPS at 5 ug/ml. The supernatants from treated cells were harvested at 24 h and placed in a 96 well for Luminex cytokine & chemokine profiling using a Luminex 200 multiplex assay (Luminex; R&D system, USA).
(§2) The main study arm with triplicate wells per group in a 24-well plate: • 1. Blank • 2. PBMC: 0.5% DMSO • 3. PBMC+LPS (5 ug/ml) • 4. PBMC+YY-101 100 uM • 5. PBMC+YY-101 10 uM • 6. PBMC+YY-101 1 uM • 7. PBMC+YY-101 0.1 uM • 8. PBMC+YY-101 0.01 uM • 9. PBMC+LPS (5 ug/ml)+Xiidra®100 uM • 10. PBMC+LPS (5 ug/ml)+Xiidra® 10 uM • 11. PBMC+LPS (5 ug/ml)+Xiidra® 1 uM • 12. PBMC+LPS (5 ug/ml)+Xiidra®0.1 uM • 13. PBMC+LPS (5 ug/ml)+Xiidra®0.01 uM • 14. PBMC+LPS (5 ug/ml)+Xiidra®0.001 uM • 15. PBMC+LPS (5 ug/ml)+YY-101 100 uM • 16. PBMC+LPS (5 ug/ml)+YY-101 10 uM • 17. PBMC+LPS (5 ug/ml)+YY-101 1 uM • 18. PBMC+LPS (5 ug/ml)+YY-101 0.1 uM • 19. PBMC+LPS (5 ug/ml)+YY-101 0.01 uM • 20. PBMC+LPS (5 ug/ml)+YY-101 0.001 uM • 21. PBMC+LPS (5 ug/ml)+YDE-011 100 uM • 22. PBMC+LPS (5 ug/ml)+YDE-011 10 uM • 23. PBMC+LPS (5 ug/ml)+YDE-011 1 uM • 24. PBMC+LPS (5 ug/ml)+YDE-011 0.1 uM • 25. PBMC+LPS (5 ug/ml)+YDE-011 0.01 uM • 26. PBMC+LPS (5 ug/ml)+YDE-011 0.001 uM • 27. PBMC+LPS (5 ug/ml)+YDE-043 100 uM • 28. PBMC+LPS (5 ug/ml)+YDE-043 10 uM • 29. PBMC+LPS (5 ug/ml)+YDE-043 1 uM • 30. PBMC+LPS (5 ug/ml)+YDE-043 0.1 uM • 31. PBMC+LPS (5 ug/ml)+YDE-043 0.01 uM • 32. PBMC+LPS (5 ug/ml)+YDE-043 0.001 uM
The number of PBMCs was measured after 24 hr of treatment. The culture both and trypan blue were diluted 1:1 and 10 ul was added to Countess cell counting chamber (Thermo fisher, USA). The number of PBMCs was measured using a Countess automated cell counter (Thermo fisher, USA).

IL-17A = assay: Example 9 Luminex, LPS hPBMCs: IL-17A; assay type: cell-based, human
Procedure: as §1, §2
Multiplex assay was used to measure 30 cytokines and chemokines. The 1:2, 1:10 and 1:200 diluted cell supernatant and serial dilution of the standard were dispensed into a 96 well plate at 50 ul/well. Then, the pre-mixed cocktail of antibody-coated magnetic beads was dispensed at 50 ul/well and incubated at room temperature for 2 h in a horizontal orbital microplate shaker at 800±500 rpm. The beads were washed using a magnetic device to prevent loss. The biotin-antibody was dispensed in 50 ul of each well and incubated at room temperature for 1 h in a shaker at 800±500 rpm. After washing, streptavidin-PE was added at 50 ul/well and incubated at room temperature for 30 min in a shaker under the same conditions. Finally, after washing, wash buffer (100 ul/well) was added to the plate and incubated in a shaker for 2 min. The Luminex™ 200 setting were set according to the manufacturer's protocol. The data was calculated with a standard five-parameter logistic nonlinear regression analysis of the data (xPonent software 4.2, USA). The levels of cytokine/chemokine are normalized to the live cell counts (1×10^5 cells/mL) and presented as concentrations per mL (pg/mL or ng/mL).

[2] = PBMC + LPS(5 ug/ml) + test article 0.001 uM, Mean
[3] = PBMC + LPS(5 ug/ml) + test article 0.001 uM, single replicates (1st, 2nd, 3rd)
[4] = PBMC + LPS(5 ug/ml) + test article 0.01 uM, Mean
[5] = PBMC + LPS(5 ug/ml) + test article 0.01 uM, single replicates (1st, 2nd, 3rd)
[6] = PBMC + LPS(5 ug/ml) + test article 0.1 uM, Mean
[7] = PBMC + LPS(5 ug/ml) + test article 0.1 uM, single replicates (1st, 2nd, 3rd)
[8] = PBMC + LPS(5 ug/ml) + test article 1 uM, Mean
[9] = PBMC + LPS(5 ug/ml) + test article 1 uM, single replicates (1st, 2nd, 3rd)
[10] = PBMC + LPS(5 ug/ml) + test article 10 uM, Mean
[11] = PBMC + LPS(5 ug/ml) + test article 10 uM, single replicates (1st, 2nd, 3rd)
[12] = PBMC + LPS(5 ug/ml) + test article 100 uM, Mean
[13] = PBMC + LPS(5 ug/ml) + test article 100 uM, single replicates (1st, 2nd, 3rd)

CC(C)C[C@H](NC(=O)[C@H](CCC(N)=O)NC(=O)CNC(=O)[C@@H]1C[C@@H](O)CN1)C(=O)NCC(=O)O [YDE-043] (H-[Hyp]GQLG-OH; N-terminus and C-terminus assumed)
viability at 24 h, 0.001 µM ([1]; PBMC + LPS(5 ug/ml) + compound 0.001 uM): 79.3 ± 1.5% | viability at 24 h, 0.01 µM ([1]; PBMC + LPS(5 ug/ml) + compound 0.01 uM): 77.3 ± 6.9% | viability at 24 h, 0.1 µM ([1]; PBMC + LPS(5 ug/ml) + compound 0.1 uM): 82 ± 4% | viability at 24 h, 1 µM ([1]; PBMC + LPS(5 ug/ml) + compound 1 uM): 78 ± 5% | viability at 24 h, 10 µM ([1]; PBMC + LPS(5 ug/ml) + compound 10 uM): 83.3 ± 3.3% | viability at 24 h, 100 µM ([1]; PBMC + LPS(5 ug/ml) + compound 100 uM): 84.5 ± 4.5% | Concentration, IL-17A (IL-17A; [2]): 1.0 pg/mL | MFI, Bead name: IL-17A (IL-17A; [2]): 0.2 | conc/live cell, IL-17A (IL-17A; [2]): 0.2 pg/10^5 | Concentration, IL-17A (IL-17A; [3]): 1.0 pg/mL | MFI, Bead name: IL-17A (IL-17A; [3]): 0.5 (2×) and −0.5 | conc/live cell, IL-17A (IL-17A; [3]): 0.2 pg/10^5 (2×) and 0.0 pg/10^5 | Concentration, IL-17A (IL-17A; [4]): 1.0 pg/mL | MFI, Bead name: IL-17A (IL-17A; [4]): 0.5 | conc/live cell, IL-17A (IL-17A; [4]): 0.2 pg/10^5 | Concentration, IL-17A (IL-17A; [5]): 1.0 pg/mL | MFI, Bead name: IL-17A (IL-17A; [5]): 0.5 | conc/live cell, IL-17A (IL-17A; [5]): 0.2 pg/10^5 | Concentration, IL-17A (IL-17A; [6]): 1.6 pg/mL | MFI, Bead name: IL-17A (IL-17A; [6]): 0.8 | conc/live cell, IL-17A (IL-17A; [6]): 0.3 pg/10^5 | Concentration, IL-17A (IL-17A; [7]): 2.7 pg/ml and 1.0 pg/ml (2×) | MFI, Bead name: IL-17A (IL-17A; [7]): 1.5 and 0.5 (2×) | conc/live cell, IL-17A (IL-17A; [7]): 0.5 pg/10^5 and 0.2 pg/10^5 (2×) | Concentration, IL-17A (IL-17A; [8]): 1.9 pg/mL | MFI, Bead name: IL-17A (IL-17A; [8]): 0.5 | conc/live cell, IL-17A (IL-17A; [8]): 0.2 pg/10^5 | Concentration, IL-17A (IL-17A; [9]): 1.0 pg/mL and 2.7 pg/mL | MFI, Bead name: IL-17A (IL-17A; [9]): 0.5 and −0.5 and 1.5 | conc/live cell, IL-17A (IL-17A; [9]): 0.2 pg/10^5 and 0.0 pg/10^5 and 0.5 pg/10^5 | Concentration, IL-17A (IL-17A; [10]): 1.3 pg/mL | MFI, Bead name: IL-17A (IL-17A; [10]): 0.7 | conc/live cell, IL-17A (IL-17A; [10]): 0.2 pg/10^5 | Concentration, IL-17A (IL-17A; [11]): 0.1 pg/mL and 2.7 pg/mL and 1.0 pg/mL | MFI, Bead name: IL-17A (IL-17A; [11]): 0.0 and 1.5 and 0.5 | conc/live cell, IL-17A (IL-17A; [11]): 0.0 pg/10^5 and 0.5 pg/10^5 and 0.2 pg/10^5 | MFI, Bead name: IL-17A (IL-17A; [12]): −0.5 | conc/live cell, IL-17A (IL-17A; [12]): 0.0 pg/10^5 | MFI, Bead name: IL-17A (IL-17A; [13]): −0.5 | conc/live cell, IL-17A (IL-17A; [13]): 0.0 pg/10^5
